The test system of the experiment is facial skin. The experiment can be described thus: Sensory test of cooling sensation, alcohol-free face lotion, 19 trained panelists. The class given is in vivo, human. The note with it: 0.3% in alcohol-free face lotion. The method, then:
A sensory test was carried out with a group of 19 trained panelists in order to evaluate the performance of the coolant composition according to the present invention of Example 2 consisting of 15% l-menthyl l-lactate, 57.6% racemic neomenthol, 21.8% racemic menthol, 4.8% racemic neoisomenthol and 0.8% racemic isomenthol) for topical applications.
The cooling sensation of the coolant composition of Example 2 was tested in direct comparison to l-menthyl l-lactate. The mixture according to Example 2 and l-menthyl l-lactate were separately incorporated into samples of an alcohol-free face lotion at a level of 0.3%, based on the total weight of the face lotion.
The presented data are average values. The overall cooling sensation was rated on a scale of 1 to 5 (1=very weak; 5=very strong).

Structures are written as SMILES.

Turning to `CC(C)[C@@H]1CC[C@@H](C)C[C@H]1OC(=O)[C@H](C)O` [I-menthyl I-lactate, l-menthyl l-lactate], where the note is “average”, the “How long does the cooling sensation last ?” value is on record as “about 9 minutes” and the “When does the cooling sensation become noticeable?” value is recorded as “after 1 minute”. Besides, the “Overall cooling sensation (facial skin)” value (average, scale of 1 to 5 (1=very weak; 5=very strong)) amounted to 2.4. Further, the “Was the cooling sensation pleasant ? yes” value (share of panelists answering yes) was “yes: 73.7%”.
